Bounds are passed on as bounds.

These results are taken from ChEMBL document CHEMBL1770140, “MMP-13 selective α-sulfone hydroxamates: a survey of P1' heterocyclic amide isosteres” (Bioorg Med Chem Lett, 2011).

In series [1] the target is Stromelysin-1 (Homo sapiens, UniProt P08254). As to the kind of experiment: Inhibition of human MMP-3.
The target in series [2] is Matrix metalloproteinase-14 (Homo sapiens, UniProt P50281). As to the kind of experiment: Inhibition of human MMP-14.
Series [3] is described as follows: Cmax in rat. The series is classed as ADME, organism-based. To be noted: in vivo.
In series [4] the target is Matrix metalloproteinase-9 (Homo sapiens, UniProt P14780). As to the kind of experiment: Inhibition of human MMP-9.
Series [5] addresses Collagenase 3 (Homo sapiens, UniProt P45452). Put plainly: Inhibition of human MMP-13.
Series [6] has as its target T1, Interstitial collagenase (Homo sapiens, UniProt P03956).
T1 sequence (P03956 whole entry): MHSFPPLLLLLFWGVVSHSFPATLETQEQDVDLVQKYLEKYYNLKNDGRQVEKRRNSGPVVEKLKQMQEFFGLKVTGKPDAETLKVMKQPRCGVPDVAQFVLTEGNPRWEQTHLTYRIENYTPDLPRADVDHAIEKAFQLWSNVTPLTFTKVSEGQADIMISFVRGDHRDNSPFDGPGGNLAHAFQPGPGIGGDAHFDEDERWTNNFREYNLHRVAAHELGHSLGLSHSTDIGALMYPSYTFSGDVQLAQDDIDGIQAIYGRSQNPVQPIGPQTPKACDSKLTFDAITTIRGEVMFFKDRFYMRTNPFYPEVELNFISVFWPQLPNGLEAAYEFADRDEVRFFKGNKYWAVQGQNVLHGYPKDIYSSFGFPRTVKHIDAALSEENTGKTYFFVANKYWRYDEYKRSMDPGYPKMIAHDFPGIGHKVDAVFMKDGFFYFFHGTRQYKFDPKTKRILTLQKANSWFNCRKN
As to the kind of experiment: Inhibition of human MMP-1.

Series [7] in a line: Half life in rat. The series is classed as ADME, organism-based. Particulars: in vivo.
For series [8], the target named is Neutrophil collagenase (Homo sapiens, UniProt P22894). Put plainly: Inhibition of human MMP-8.
The target in series [9] is 72 kDa type IV collagenase (Homo sapiens, UniProt P08253). Put plainly: Inhibition of human MMP-2.
Series [10] addresses T2, Matrilysin (Homo sapiens, UniProt P09237).
T2 sequence (P09237 whole entry): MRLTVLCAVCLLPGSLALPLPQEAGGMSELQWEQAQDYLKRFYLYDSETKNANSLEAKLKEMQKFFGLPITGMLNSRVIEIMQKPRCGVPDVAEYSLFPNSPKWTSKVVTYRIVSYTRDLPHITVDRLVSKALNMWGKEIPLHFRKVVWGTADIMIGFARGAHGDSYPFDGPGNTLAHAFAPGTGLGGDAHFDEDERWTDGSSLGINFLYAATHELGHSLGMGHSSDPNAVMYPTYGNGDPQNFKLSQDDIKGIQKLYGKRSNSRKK
Put plainly: Inhibition of human MMP-7.

A short description of series [11]: Bioavailability in rat. The series is classed as ADME, organism-based. Particulars: in vivo.
Series [12] can be described thus: Clearance in rat. The series is classed as ADME, organism-based. Particulars: in vivo.

72 kDa type IV collagenase, sequence (P08253 whole entry): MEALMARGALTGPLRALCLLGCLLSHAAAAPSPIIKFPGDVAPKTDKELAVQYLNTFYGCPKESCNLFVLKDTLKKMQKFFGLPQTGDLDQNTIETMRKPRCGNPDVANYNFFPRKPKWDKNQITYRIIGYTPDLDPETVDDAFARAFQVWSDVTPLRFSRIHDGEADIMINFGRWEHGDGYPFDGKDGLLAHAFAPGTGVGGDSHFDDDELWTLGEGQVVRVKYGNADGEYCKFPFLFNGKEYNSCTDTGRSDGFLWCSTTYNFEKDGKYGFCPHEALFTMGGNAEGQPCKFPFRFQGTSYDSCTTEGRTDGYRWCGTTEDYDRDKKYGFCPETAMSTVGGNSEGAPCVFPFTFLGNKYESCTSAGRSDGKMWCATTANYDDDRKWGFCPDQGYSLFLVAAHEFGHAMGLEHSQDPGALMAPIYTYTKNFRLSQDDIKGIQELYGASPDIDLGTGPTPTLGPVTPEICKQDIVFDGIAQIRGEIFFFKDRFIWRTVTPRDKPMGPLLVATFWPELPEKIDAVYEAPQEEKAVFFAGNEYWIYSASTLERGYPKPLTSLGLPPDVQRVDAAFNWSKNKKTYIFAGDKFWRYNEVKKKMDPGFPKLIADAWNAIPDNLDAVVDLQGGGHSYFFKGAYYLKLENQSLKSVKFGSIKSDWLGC
Neutrophil collagenase, sequence (P22894 whole entry): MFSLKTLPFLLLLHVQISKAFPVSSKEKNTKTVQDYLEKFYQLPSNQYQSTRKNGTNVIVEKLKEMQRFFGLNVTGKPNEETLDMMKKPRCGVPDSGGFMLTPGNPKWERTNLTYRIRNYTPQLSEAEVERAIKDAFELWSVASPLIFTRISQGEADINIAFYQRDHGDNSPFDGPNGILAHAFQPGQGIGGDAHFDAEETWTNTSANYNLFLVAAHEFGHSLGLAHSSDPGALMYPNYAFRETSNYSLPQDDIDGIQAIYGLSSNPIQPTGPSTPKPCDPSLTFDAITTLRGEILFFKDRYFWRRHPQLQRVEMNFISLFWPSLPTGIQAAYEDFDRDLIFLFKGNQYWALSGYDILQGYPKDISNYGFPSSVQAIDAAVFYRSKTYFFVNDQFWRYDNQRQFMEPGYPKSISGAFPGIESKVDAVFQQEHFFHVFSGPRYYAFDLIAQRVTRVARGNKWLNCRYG
Matrix metalloproteinase-9, sequence (P14780 whole entry): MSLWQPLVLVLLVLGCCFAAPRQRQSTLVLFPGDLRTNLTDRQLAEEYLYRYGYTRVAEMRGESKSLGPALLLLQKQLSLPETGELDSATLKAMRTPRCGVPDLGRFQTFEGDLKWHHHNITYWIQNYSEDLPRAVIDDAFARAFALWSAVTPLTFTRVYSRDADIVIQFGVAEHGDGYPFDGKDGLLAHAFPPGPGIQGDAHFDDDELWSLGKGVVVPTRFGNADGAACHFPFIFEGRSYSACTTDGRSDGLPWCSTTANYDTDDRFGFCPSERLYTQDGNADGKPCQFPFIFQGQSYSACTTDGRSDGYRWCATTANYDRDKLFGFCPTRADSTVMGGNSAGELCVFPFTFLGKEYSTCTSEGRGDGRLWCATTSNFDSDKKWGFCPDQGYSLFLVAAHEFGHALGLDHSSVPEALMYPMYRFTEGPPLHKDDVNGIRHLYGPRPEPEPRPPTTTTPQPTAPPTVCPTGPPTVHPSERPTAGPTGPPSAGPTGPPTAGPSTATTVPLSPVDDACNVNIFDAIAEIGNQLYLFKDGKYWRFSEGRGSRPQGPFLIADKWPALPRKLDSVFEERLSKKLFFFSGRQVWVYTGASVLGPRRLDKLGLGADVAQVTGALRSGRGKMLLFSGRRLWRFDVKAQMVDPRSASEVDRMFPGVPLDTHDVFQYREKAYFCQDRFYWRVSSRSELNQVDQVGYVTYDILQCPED
Stromelysin-1, sequence (P08254 whole entry): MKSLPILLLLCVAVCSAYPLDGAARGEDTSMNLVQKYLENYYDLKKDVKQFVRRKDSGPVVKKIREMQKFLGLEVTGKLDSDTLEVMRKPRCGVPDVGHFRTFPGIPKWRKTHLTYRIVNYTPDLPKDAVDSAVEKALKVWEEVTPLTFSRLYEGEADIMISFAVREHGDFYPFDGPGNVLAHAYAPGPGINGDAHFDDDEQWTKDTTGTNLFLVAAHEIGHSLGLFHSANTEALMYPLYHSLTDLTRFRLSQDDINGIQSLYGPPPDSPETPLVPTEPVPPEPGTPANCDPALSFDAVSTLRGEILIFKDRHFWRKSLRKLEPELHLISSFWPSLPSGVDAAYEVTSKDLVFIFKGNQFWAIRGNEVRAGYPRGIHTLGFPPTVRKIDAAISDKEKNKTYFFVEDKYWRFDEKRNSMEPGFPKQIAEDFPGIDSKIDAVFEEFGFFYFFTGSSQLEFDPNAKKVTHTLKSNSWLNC

As to `COc1ccc(C(=O)NCCCOc2ccc(S(=O)(=O)C3(C(=O)NO)CCOCC3)cc2)cc1`, the Ki is 900 nM in series [1]; more than 10000 nM in [2]; more than 10000 nM in [4]; 1.6 nM in series [5]; more than 10000 nM in [6]; 900 nM in series [8]. In series [9], this molecule yielded a Ki of 550 nM. For the same molecule, the peak level in series [3] (Cmax) was 0.02 ng/mL. The molecule further showed a half-life in series [7] of 0.59 h.
For `COCCN1CCC(C(=O)NO)(S(=O)(=O)c2ccc(Oc3ccc(OC(F)(F)F)cc3)cc2)CC1`, in series [3], the Cmax is 21900 ng/mL. Also, the Ki in [10] was 7000 nM; in [6] it was more than 10000 nM. Also, the IC50 in series [5] and in series [9] was less than 0.1 nM throughout. Besides, the half-life in series [7] was 2.9 h. In [11], the bioavailability was found to be 68%.
Take `COc1ccc(C(=O)N2CCN(c3ccc(S(=O)(=O)C4(C(=O)NO)CCOCC4)cc3)CC2)cc1`: the IC50 is 90 nM in series [1]; more than 10000 nM in series [10]; 1200 nM in [4]; 0.7 nM in series [5]; 1200 nM in [8]; 1300 nM in [9]. Also, the inhibition constant Ki in series [2] and in series [6] was more than 10000 nM each time. This molecule also displayed a Cmax in [3] of 4200 ng/mL. Further, the half-life in series [7] is 1.2 h. For the same molecule, in series [11], the bioavailability came out at 14%.
Take `COc1ccc(-c2nnn(CCCOc3ccc(S(=O)(=O)C4(C(=O)NO)CCOCC4)cc3)n2)cc1`: the values for the IC50 in series [1], in [4] and in series [8] were 39 nM, 1100 nM and 190 nM, respectively. The Ki in series [2] is more than 10000 nM; in series [6], 5600 nM.
In the case of `O=C(NO)C1(S(=O)(=O)c2ccc(OCCCn3nnc(-c4ccc(OC(F)(F)F)cc4)n3)cc2)CCOCC1`, the inhibition constant (Ki) in [1] is 28 nM; in [2], more than 10000 nM; in series [10] it was more than 10000 nM; in [4] it was 1200 nM; in series [5] it was 0.66 nM; in [6], more than 10000 nM. Moreover, the Ki in series [8] was 170 nM; in series [9], 410 nM. The Cmax in series [3] amounted to 61 ng/mL. In series [12], this molecule showed a clearance of 12 mL/min/kg. In series [7], this molecule showed a half-life of 2.4 h. The molecule further came in with a bioavailability in [11] of 32%.
Regarding `COCCN1CCC(C(=O)NO)(S(=O)(=O)c2ccc(OCCCn3nnc(-c4ccc(OC(F)(F)F)cc4)n3)cc2)CC1`, the Ki is 8.7 nM in series [1]; more than 10000 nM in series [2]; 8600 nM in series [10]; 0.13 nM in series [5]; more than 10000 nM in [6]; 8000 nM in series [8]. In addition, the Cmax in [3] stood at 1400 ng/mL. For the same molecule, the half-life in [7] was 1.3 h. The molecule also yielded a bioavailability in series [11] of 26%.
Take `Cc1ccc(-c2nnn(CCCOc3ccc(S(=O)(=O)C4(C(=O)NO)CCOCC4)cc3)n2)nc1`: the Ki in series [1] was 44 nM; in [2], more than 10000 nM; in series [10] it was 3000 nM; in series [4] it was 370 nM; in series [5] it was 0.66 nM; in series [6], more than 10000 nM. The Ki in series [8] was found to be 240 nM; in series [9], 110 nM. This molecule showed a Cmax in [3] of 3500 ng/mL. In [12], this molecule came in with a clearance of 46 mL/min/kg. The molecule also had a half-life in [7] of 2 h. Besides, in series [11], the bioavailability is 1.7%.
As for `Cc1ccc(-c2nnnn2CCCOc2ccc(S(=O)(=O)C3(C(=O)NO)CCOCC3)cc2)nc1`, the Ki in series [1] was 3 nM; in [2], more than 10000 nM; in [10], 970 nM; in series [4] it was 2400 nM; in [5], 0.6 nM; in series [6], more than 10000 nM. The Ki was determined as 250 nM in [8] and 400 nM in series [9]. Further, the Cmax in [3] came out at 3000 ng/mL. The same molecule had a clearance in series [12] of 63 mL/min/kg. This molecule gave a half-life in series [7] of 4.8 h. In series [11], this molecule showed a bioavailability of 5%.
Turning to `O=C(NO)C1(S(=O)(=O)c2ccc(OCCCc3nc(-c4ccc(OC(F)(F)F)cc4)no3)cc2)CCOCC1`, the figures for the Ki in [1], in series [10] and in series [8] were 31 nM, more than 10000 nM and 180 nM, respectively. Also, in [3], the Cmax turned out to be 240 ng/mL. Also, the clearance in series [12] is 14 mL/min/kg. This molecule showed a half-life in [7] of 1.4 h. In addition, the bioavailability in series [11] amounted to 22%.
On to `CCN1CCC(C(=O)NO)(S(=O)(=O)c2ccc(OCCCc3nc(-c4ccc(OC(F)(F)F)cc4)no3)cc2)CC1`, for which the Ki is 37 nM in series [1]; more than 10000 nM in series [10]; 370 nM in series [4]; 2 nM in series [5]; 260 nM in series [8]; 410 nM in series [9]. Further, the peak level in series [3] (Cmax) was 2200 ng/mL. The clearance in series [12] was determined as 19 mL/min/kg. In series [7], the half-life was 2.4 h. For the same molecule, the bioavailability in series [11] was 28%.
`O=C(NO)C1(S(=O)(=O)c2ccc(OCCCn3cnc(-c4ccc(OC(F)(F)F)cc4)c3)cc2)CCOCC1`: the Ki in [1] is 59 nM; in series [2], more than 10000 nM; in series [10], 6000 nM; in [4], 1800 nM; in series [5], 1.7 nM; in series [6] it was more than 10000 nM. The Ki in [8] came out at 74 nM; in series [9], 530 nM.
In the case of `O=C(NO)C1(S(=O)(=O)c2ccc(OCCCn3cncc3-c3ccc(OC(F)(F)F)cc3)cc2)CCOCC1`, the Ki in series [1] was 130 nM; in series [2], more than 10000 nM; in [10] it was more than 10000 nM; in series [4] it was more than 10000 nM; in series [5], 3.7 nM; in [6], more than 10000 nM. Also, the results for the Ki in series [8] and in series [9] were 140 nM and 9200 nM, respectively.
Take `O=C(NO)C1(S(=O)(=O)c2ccc(OCCCc3nnnn3-c3ccc(OC(F)(F)F)cc3)cc2)CCOCC1`: the Ki in [1] is 9.9 nM; in [2] it was more than 10000 nM; in series [10] it was 7100 nM; in [4], 1700 nM; in series [5], 1.2 nM; in [6], more than 10000 nM. In addition, the Ki in series [8] came out at 72 nM; in series [9], 430 nM. In [3], the Cmax was 3500 ng/mL. In series [12], the clearance is 42 mL/min/kg. In addition, the half-life in series [7] was 4 h. Moreover, the bioavailability in series [11] is 7.3%.
